The source of these data is US20200163984A1, “USE OF ISOVALERYL SPIRAMYCIN I, II AND/OR III IN MANUFACTURING MEDICAMENT FOR TREATING AND/OR PREVENTING TUMOR, AND MEDICAMENT” (SHENYANG FUYANG PHARMACEUTICAL TECHNOLOGY CO., LTD., priority 2017, published 2020).

For series [1], the system named is transplanted tumor of human non-small cell lung cancer cell H1299. To be noted: H1299; 30 mg/kg i.g. 30 days. The procedure: (§1) Then cell concentration was adjusted to 1×10^7/ml with matrigel, then each nude mouse was inoculated subcutaneously with 0.2 ml of cells at its right armpit and recorded as the first day of inoculation. When the tumor grows to be greater than or equal to 100 mm^3, the mice were randomly divided into 11 groups with 6 mice in each group: isovaleryl spiramycin I groups with doses of 25, 50 and 100 mg/kg, isovaleryl spiramycin II groups with doses of 25, 50 and 100 mg/kg, and isovaleryl spiramycin III groups with doses of 25, 50 and 100 mg/kg. Each group was continuously administered intragastrically for 30 days with a dose of 20 ml/kg. The mice were sacrificed the next day after drug withdrawal and the indicators were tested. The long diameter and short diameter of the tumor, and the body weight of each mouse were recorded every 3 days from drug administration to nude mouse sacrifice.
(§2) The body weight of the nude mice and the long diameter (a) and short diameter (b) of the transplanted tumor were measured every 3 days, and the tumor volume (v), relative tumor volume (RTV) and relative tumor proliferation rate (T/C) are calculated respectively according to the following formulas, wherein V=a×b^2/2; RTV=V/V0 (V0 is the tumor volume before administration, V is the tumor volume before sacrifice), and T/C (%)=treatment group RTV/model control group RTV×100%.
(§3) Each mouse was weighed and sacrificed. After the tumor was completely stripped off from the body of the mouse, the non-tumor tissues such as blood stains and fat were removed to weigh the tumor and calculate the tumor growth inhibition rate. The average tumor weight of each group of mice is used as an indicator of efficacy. Tumor growth inhibition rate (%)=(1−the average tumor weight of the treatment group/the average tumor weight of the model group)×100%.

In series [2] the test system is transplanted tumor of human pancreatic cancer cell PANC-1. The series can be described thus: PANC-1 transplanted tumor in nude mice. The procedure:
as §1, with “group: a model group, a cyclophosphamide group,” for “group:”
as §2, §3

The subject of series [3] is transplanted tumor of human renal clear cell adenocarcinoma cell 786-O. The experiment in a line: 786-O transplanted tumor in nude mice. To be noted: 786-O nude mice, 30 mg/kg. As to the method: as §1, with “786-O cells in a logarithmic growth phase were taken and subjected to a trypan blue exclusion experiment showing that the cell viability was more than 95%, then the cells were subjected to trypsinization, centrifugation, and supernatant removal. Then” for “Then”, “group: a model group, a cyclophosphamide group,” for “group:”
as §2, §3

With `O=P1(N(CCCl)CCCl)NCCCO1` (stereo not drawn) [Cyclophosphamide, cyclophosphamide, reference compound], in series [1], the “Body Weight (d 1)” value is 21.83 ± 0.33 g, the “Body Weight (d 30)” value was 23.72 ± 2.41 g, the “Inhibition Rate (tumor growth inhibition rate)” value is reported as 78.00% and the “Relative Tumor Proliferation Rate (T/C)” value is given as 22.72%. For the same molecule, in series [1], the “Relative Tumor Volume (RTV)” value stood at 2.91 ± 0.95, the “Tumor Volume (d 1)” value turned out to be 135.46 ± 16.48 mm3, the “Tumor Volume (d 30)” value was found to be 384.21 ± 106.99 mm3 and the “Tumor Weight” value came to 0.38 ± 0.08 g. For the same molecule, in series [2] (PANC-1, 30 mg/kg i.g. 30 days), the “Body Weight (d 1)” value stood at 22.03 ± 0.70 g, the “Body Weight (d 30)” value was determined as 17.77 ± 0.65 g, the “Inhibition Rate (tumor growth inhibition rate)” value is 70.18% and the “Tumor Weight” value was 0.81 ± 0.25*8 g. In addition, in series [2] (PANC-1 nude mice, 30 mg/kg), the “Relative Tumor Proliferation Rate (T/C)” value is recorded as 29.56% and the “Relative Tumor Volume (RTV)” value stood at 5.17 ± 0.64. In addition, in series [2] (PANC-1 nude mice, 30 mg/kg, d1), the “Tumor Volume (mm3) (d 1)” value is given as 103.78 ± 12.65 mm3. Also, the “Tumor Volume (mm3) (d30)” value in series [2] (PANC-1 nude mice, 30 mg/kg, d30) is on record as 532.62 ± 56.27 mm3. In series [3], the “Inhibition Rate (%)” value turned out to be 70.51%, the “Relative Tumor Proliferation Rate (T/C)” value amounted to 37.41%, the “Relative Tumor Volume (RTV)” value is recorded as 6.76 ± 0.79 and the “Tumor Weight” value was 0.63 ± 0.04 g. Besides, in series [3] (d1), the “Body Weight (g) (d1)” value is 21.58 ± 0.81 g and the “Tumor Volume (mm3) (d 1)” value stood at 108.64 ± 14.40 mm3. Also, in series [3] (d30), the “Body Weight (g) (d30)” value amounted to 19.42 ± 0.67 g and the “Tumor Volume (mm3) (d30)” value is 734.23 ± 24.66 mm3.
